Experimental data taken from patent US20250060373A1, “NOVEL ASSAY AND NOVEL METHODS OF TREATING HUTCHINSON-GILFORD PROGERIA SYNDROME” (The Progeria Research Foundation, priority 2021, published 2025).

What was measured:
[1] = system: children with HGPS; details: children with HGPS treated with lonafarnib in clinical trials; cited from earlier work
[2] = system: plasma progerin; assay: Plasma progerin (SMC Progerin Immunoassay) in HGPS clinical trial patients on therapy; format: in vivo, human
Excerpt: An SMC ultrasensitive immunoassay for the detection of plasma progerin was developed. Overall, the assay employed a sandwich immunoassay format with an anti-lamin A capture antibody coated on magnetic microparticles, and an anti-progerin specific detection antibody conjugated to a fluorescent tag (FIG. 1) run in a 96-well plate. Progerin-bound detection antibody was eluted and read as single molecules using a confocal laser.
The SMC assay for measuring Progerin was as previously described (Todd et al.), except that magnetic microparticles (MP) coated with capture antibodies and detection reagents were specific to the progerin assay (FIG. 1). […] Progerin-bound detection antibody was then eluted by pH shift using a proprietary glycine buffer, transferred to a new plate and detected by SMC using the Erenna Immunoassay System software (SgxLink™). The raw signal data and the interpolated value data obtained from SgxLink were transferred to Excel where precision was then calculated for the replicate wells. […]
For analysis, samples were fully thawed at RT for <5 min, lightly mixed, diluted in standard diluent before transferring into filter plate wells (MilliporeSigma MSBVN1210). […] Filtrate was then assessed as described. […]

NC(=O)N1CCC(CC(=O)N2CCC([C@H]3c4ncc(Br)cc4CCc4cc(Cl)cc(Br)c43)CC2)CC1 [lonafarnib]
increased survival, estimated, on average [1]: 2.5 years | average progerin, lonafarnib monotherapy extension visits versus consecutive Triple Therapy visits ([2]; 10 patients, extension of additional 4.1±0.5 years, p=0.99): no significant differences | progerin at 150 mg/m^2 versus the 115 mg/m^2 dose ([2]; ProLon1, each of the 4 trial visits after the 8-month visit, N=22-25, all p<0.05): significantly decreased
